Data taken from patent publication US9376700B2, “Methods of modifying N-termini of a peptide or protein using transferases” (The Trustees of the University of Pennsylvania, priority 2012, dated 2016).

Target: E. coli aminoacyl transferase (AaT) (Escherichia coli, UniProt P0A8P1)
Test: LysAlaAcm ligation assay: AaT-catalyzed transfer from aminoacyl adenosine donor to LysAlaAcm, HPLC at 325 nm
Type: biochemical
Design: made in house; host or cells: E. coli BL21-Gold (DE3), plasmid pEG6, Ni-NTA purified
Conditions: for Transfer to LysAlaAcm by AaT (in words): reactions analyzed after 4 h; for Ligated Product Yield (%): 4 h
Description: Each ligation reaction, 125 μL total volume, contained the following reagents: aminoacyl adenosine donor (1 mM), recombinant His10-tagged E. coli aminoacyl transferase (2.26 μM), and LysAlaAcm (100 μM) in the AaT Ligation Buffer (50 mM HEPES pH 8.0, 150 mm KCl, 10 mM MgCl2). The reaction mixtures were incubated at 37° C. for four hours and quenched with 1% acetic acid. The proteins were extracted from the reactions via acetone precipitation. The reactions were precipitated using 4× reaction volume of acetone and cooled at −20° C. for 1 h. Next, the reactions were centrifuged at 13,200 rpm at 4° C. for 20 min to separate the reaction from precipitated protein. The supernatant was transferred to fresh 1.5 mL centrifuge tubes and allowed for acetone evaporation overnight at room temperature. After acetone evaporation, the supernatant was dried in a Speedvac (Savant, Thermo Scientific, Fisher Inc.) for 30 min to remove residual acetone. The resulting reaction volume was dissolved up to 1.2 mL using Milli-Q water and analyzed by HPLC (gradient below) to determine ligation yield by integration of separated peak intensities monitored at 325 nm. Collected HPLC fractions were characterized through MALDI MS analysis. […] Reactions using Phe-pdCpA as donor were carried out in an identical fashion (Ellman, et al., 1991, Methods Enzymol. 202:301-336).
All HPLC analyses of LysAlaAcm ligations were monitored on an Agilent HPLC using a Waters C18 column (Milford, Mass.).
All HPLC analyses of LysAlaAcm ligations were monitored as described elsewhere herein (Gradient 1).
The extent of transfer was evaluated by HPLC analysis of reactions with adenosyl donor, AaT or BpT, and an aminocoumarin-labeled reporter peptide (for AaT, LysAlaAcm was used as previously described by Tirrell and co-workers; for BpT, AspAlaAcm was used in an analogous fashion) (Connor et al., 2008, ChemBioChem 9:366-369). Monitoring LysAlaAcm or AspAlaAcm acylation in crude reaction mixtures using absorbance at 325 nm conveniently eliminates background due to other proteins and nucleic acids, although some non-natural amino acids such as naphthylalanine (Nap) and methoxycoumarinylalanine (Mcm) also absorb in this range.
To evaluate substrate scope, reactions were analyzed after 4 h, when transfer should be complete for the fully enzymatic reaction with Phe tRNA synthetase (Connor et al., 2008, ChemBioChem 9:366-369).

[1] = single addition of 1 mM donor, 100 μM LysAlaAcm, 2.26 μM AaT, 37° C., no additive

Sequence of E. coli aminoacyl transferase (AaT) (P0A8P1 whole entry): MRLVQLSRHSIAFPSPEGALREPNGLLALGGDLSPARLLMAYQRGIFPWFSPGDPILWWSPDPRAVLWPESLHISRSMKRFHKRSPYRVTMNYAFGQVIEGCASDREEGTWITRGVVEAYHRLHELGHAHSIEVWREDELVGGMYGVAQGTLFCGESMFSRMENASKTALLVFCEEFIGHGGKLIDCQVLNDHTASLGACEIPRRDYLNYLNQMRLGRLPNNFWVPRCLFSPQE

Compound: Nc1ncnc2c1ncn2[C@@H]1O[C@H](CO)[C@@H](O)[C@H]1OC(=O)[C@@H](N)Cc1ccc(C(=O)c2ccccc2)cc1 [4i, (S)-(2R,3R,4R,5R)-2-(6-amino-9H-purin-9-yl)-4-hydroxy-5-(hydroxymethyl)tetrahydrofuran-3-yl 2-amino-3-(4-benzoylphenyl)propanoate]
- Transfer to LysAlaAcm by AaT (in words): poor substrate
- Ligated Product Yield (%) [1]: 9.2 ± 0.3%

Compound: CC(=O)N[C@@H](Cc1ccccc1)C(=O)O[C@@H]1[C@H](O)[C@@H](CO)O[C@H]1n1cnc2c(N)ncnc21 [4f, (S)-(2R,3R,4R,5R)-2-(6-amino-9H-purin-9-yl)-4-hydroxy-5-(hydroxymethyl)tetrahydrofuran-3-yl 2-acetamido-3-phenylpropanoate]
- Transfer to LysAlaAcm by AaT (in words): poor substrates
- Ligated Product Yield (%) [1]: 5f not observed

Compound: CN[C@@H](Cc1ccccc1)C(=O)O[C@@H]1[C@H](O)[C@@H](CO)O[C@H]1n1cnc2c(N)ncnc21 [4e, (S)-(2R,3R,4R,5R)-2-(6-amino-9H-purin-9-yl)-4-hydroxy-5-(hydroxymethyl)tetrahydrofuran-3-yl 2-(methylamino)-3-phenylpropanoate]
- Transfer to LysAlaAcm by AaT (in words): transferred, albeit with low yield
- Ligated Product Yield (%) [1]: 0.6 ± 0.1%

Compound: CSSCC[C@H](N)C(=O)O[C@@H]1[C@H](O)[C@@H](CO)O[C@H]1n1cnc2c(N)ncnc21 [4n, (S)-(2R,3R,4R,5R)-2-(6-amino-9H-purin-9-yl)-4-hydroxy-5-(hydroxymethyl)tetrahydrofuran-3-yl 2-amino-4-(methyldisulfanyl)butanoate]
- Ligated Product Yield (%) [1]: 27.8%

Compound: [N-]=[N+]=N[C@@H](Cc1ccccc1)C(=O)O[C@@H]1[C@H](O)[C@@H](CO)O[C@H]1n1cnc2c(N)ncnc21 [4g, (S)-(2R,3R,4R,5R)-2-(6-amino-9H-purin-9-yl)-4-hydroxy-5-(hydroxymethyl)tetrahydrofuran-3-yl 2-azido-3-phenylpropanoate]
- Transfer to LysAlaAcm by AaT (in words): poor substrates
- Ligated Product Yield (%) [1]: 5g not observed^c

Compound: CSCC[C@H](N)C(=O)O[C@@H]1[C@H](O)[C@@H](CO)O[C@H]1n1cnc2c(N)ncnc21 [4j, (S)-(2R,3R,4R,5R)-2-(6-amino-9H-purin-9-yl)-4-hydroxy-5-(hydroxymethyl)tetrahydrofuran-3-yl 2-amino-4-(methylthio)butanoate]
- Ligated Product Yield (%) [1]: 21.9%

Compound: Nc1ncnc2c1ncn2[C@@H]1O[C@H](CO)[C@@H](O)[C@H]1OC(=O)[C@@H](N)Cc1ccc2ccccc2c1 [4d, (S)-(2R,3R,4R,5R)-2-(6-amino-9H-purin-9-yl)-4-hydroxy-5-(hydroxymethyl)tetrahydrofuran-3-yl 2-amino-3-(naphthalen-2-yl)propanoate]
- Ligated Product Yield (%) [1]: 95.4 ± 0.4%
- Ligated Product Yield (%) (single addition of donor, additive 100 μM PheLysAlaAcm): 93.8 ± 0.3%

Compound: COc1ccc2c(C[C@H](N)C(=O)O[C@@H]3[C@H](O)[C@@H](CO)O[C@H]3n3cnc4c(N)ncnc43)cc(=O)oc2c1 [4h, (S)-(2R,3R,4R,5R)-2-(6-amino-9H-purin-9-yl)-4-hydroxy-5-(hydroxymethyl)tetrahydrofuran-3-yl 2-amino-3-(7-methoxy-2-oxo-2H-chromen-4-yl)propanoate]
- Transfer to LysAlaAcm by AaT (in words): too large
- Ligated Product Yield (%) [1]: 5h not observed

Compound: CSSC[C@H](N)C(=O)O[C@@H]1[C@H](O)[C@@H](CO)O[C@H]1n1cnc2c(N)ncnc21 [4k, (R)-(2R,3R,4R,5R)-2-(6-amino-9H-purin-9-yl)-4-hydroxy-5-(hydroxymethyl)tetrahydrofuran-3-yl 2-amino-3-(methyldisulfanyl)propanoate]
- Ligated Product Yield (%) [1]: 20.1%

Compound: PheLysAlaAcm
- Product inhibition of NapLysAlaAcm (5d) production from Nap-A (4d) (100 μM (1 equiv) added, standard 4 h transfer assay): did not significantly inhibit
